These results are taken from patent US20230114241A1, “METHODS OF TREATING EPILEPSY USING THE SAME” (Trevena, Inc., priority 2019, published 2023).

SMILES strings stand for the structures.

The target in this assay is human sphingosine-1-phosphate receptor 1 (S1P1) (Homo sapiens, UniProt P21453). Nature of the assay: Inhibition of cAMP production (HTRF cAMP HiRange), S1P1 CHO-K1 cells. The format is cell-based. Conditions: inhibition of cAMP production; potency; read-out: hS1P1 CAMP pEC50 (converted). The method in brief: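 CHO-K1 cells co-expressing human S1P1 (C-terminal ProLink tag) and EA-β-arrestin2, plated overnight; after 30 min compound incubation at 37 °C, intracellular cAMP measured by HTRF TR-FRET following 1 h at room temperature. Values normalized to fingolimod.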
human sphingosine-1-phosphate receptor 1 (S1P1), sequence (P21453 whole entry): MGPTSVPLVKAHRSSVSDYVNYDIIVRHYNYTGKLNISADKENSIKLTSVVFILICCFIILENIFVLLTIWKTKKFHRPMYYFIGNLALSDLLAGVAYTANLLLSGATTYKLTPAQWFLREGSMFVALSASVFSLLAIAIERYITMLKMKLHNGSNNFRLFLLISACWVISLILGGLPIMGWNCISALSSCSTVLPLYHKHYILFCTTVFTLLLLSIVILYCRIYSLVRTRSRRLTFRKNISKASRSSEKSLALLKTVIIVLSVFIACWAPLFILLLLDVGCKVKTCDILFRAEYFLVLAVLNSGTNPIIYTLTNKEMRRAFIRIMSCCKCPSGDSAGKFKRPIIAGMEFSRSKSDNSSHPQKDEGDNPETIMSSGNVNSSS
As for `Cc1ccsc1-c1noc(-c2ccc3c(c2)nnn3CC2CC2)n1` [Compound 239, 1-(cyclopropyl-methyl)-5-[3-(3-methylthiophen-2-yl)-1,2,4-oxadiazol-5-yl]-1H-1,2,3-benzotriazole], the EC50 is more than 316 nM.
For `CC(C)n1nnc2cc(-c3noc(-c4ccccc4OC(F)(F)F)n3)ccc21` [Compound 240, 3-(1-isopropyl-1H-benzo[d][1,2,3]triazol-5-yl)-5-(2-(trifluoro-methoxy)phenyl)-1,2,4-oxadiazole], the EC50 was more than 316 nM.
Turning to `CC(C)n1nnc2cc(-c3nc(-c4ccccn4)no3)ccc21` [Compound 241, 1-(propan-2-yl)-5-[3-(pyridin-2-yl)-1,2,4-oxadiazol-5-yl]-1H-1,2,3-benzotriazole], the EC50 was more than 316 nM.
For `CCCn1nnc2cc(-c3nc(-c4cccc(C(F)(F)F)c4)no3)ccc21` [Compound 242, 1-propyl-5-{3-[3-(trifluoromethyl)phenyl]-1,2,4-oxadiazol-5-yl}-1H-1,2,3-benzotriazole], the EC50 was more than 316 nM.
For the compound `Cc1cccc(C)c1-c1noc(-c2ccc3c(c2)nnn3C(C)C)n1` [Compound 243, 3-(2,6-dimethyl-phenyl)-5-(1-isopropyl-1H-benzo[d][1,2,3]triazol-5-yl)-1,2,4-oxadiazole], the EC50 was more than 316 nM.
For `CC(C)n1nnc2cc(-c3nc(-c4ccncc4)no3)ccc21` [Compound 244, 1-(propan-2-yl)-5-[3-(pyridin-4-yl)-1,2,4-oxadiazol-5-yl]-1H-1,2,3-benzotriazole], the EC50 was less than 316 nM.
As for `Cc1ccccc1-c1noc(-c2ccc3c(c2)nnn3C2CCCCC2)n1` [Compound 245, 1-cyclohexyl-5-[3-(2-methylphenyl)-1,2,4-oxadiazol-5-yl]-1H-1,2,3-benzotriazole], the figure is more than 316 nM.
Turning to `Cc1oc(-c2ccc3c(c2)nnn3C(C)C)nc1-c1ccccc1` [Compound 247, 5-(5-methyl-4-phenyl-1,3-oxazol-2-yl)-1-(propan-2-yl)-1H-1,2,3-benzotriazole], the EC50 is more than 316 nM.
As for `COc1ccc(-c2coc(-c3ccc4c(c3)nnn4C(C)C)n2)cc1` [Compound 250, 5-[4-(4-methoxy-phenyl)-1,3-oxazol-2-yl]-1-(propan-2-yl)-1H-1,2,3-benzotriazole], the figure is more than 316 nM; as for `COc1cccc(OC)c1-c1noc(-c2ccc3c(c2)nnn3C(C)C)n1` [Compound 251, 3-(2,6-dimethoxy-phenyl)-5-(1-isopropyl-benzotriazol-5-yl)-1,2,4-oxadiazole], more than 316 nM.
Take `CC1(C)CCC2(CC1)CC(=O)c1cc(-c3nc(-c4ccncc4)no3)ccc1O2` [Compound 254, 4′,4′-dimethyl-6-[3-(pyridin-4-yl)-1,2,4-oxadiazol-5-yl]-3,4-dihydrospiro[1-benzopyran-2,1′-cyclohexane]-4-one]: the EC50 was less than 316 nM.
Turning to `CC(C)n1nnc2cc(-c3noc(-c4ccc(F)cc4)n3)ccc21` [Compound 255, 5-(4-fluorophenyl)-3-(1-isopropyl-benzotriazol-5-yl)-1,2,4-oxadiazole], the EC50 was more than 316 nM.
For `CCC1(CC)CC(=O)c2cc(-c3nc(-c4ccc(N)cc4)no3)ccc2O1` [Compound 256, 6-(3-(4-amino-phenyl)-1,2,4-oxadiazol-5-yl)-2,2-diethylchroman-4-one], the EC50 was less than 316 nM.
On to `CC(C)Nc1ccc(-c2nc(-c3ccc4c(c3)CCC(=O)N4)no2)cc1C#N` [Compound 259, 2-(isopropylamino)-5-(3-(2-oxo-1,2,3,4-tetrahydroquinolin-6-yl)-1,2,4-oxadiazol-5-yl)benzonitrile], for which the EC50 is less than 316 nM.
In the case of `COc1cccc(F)c1-c1noc(-c2ccc3c(c2)nnn3C(C)C)n1` [Compound 260, 3-(2-fluoro-6-methoxy-phenyl)-5-(1-isopropylbenzo-triazol-5-yl)-1,2,4-oxadiazole], the EC50 was more than 316 nM.
Consider `CCC1(CC)CC(=O)c2cc(-c3nc(-c4ccc(NS(C)(=O)=O)cc4)no3)ccc2O1` [Compound 262, N-(4-(5-(2,2-diethyl-4-oxochroman-6-yl)-l,2,4-oxadiazol-3-yl)phenyl)methane-sulfonamide], for which the EC50 is less than 316 nM.
On to `Cc1ccncc1-c1noc(-c2ccc3nnn(C(C)C)c3c2)n1` [Compound 264, 6-[3-(4-methylpyridin-3-yl)-1,2,4-oxadiazol-5-yl]-1-(propan-2-yl)-1H-1,2,3-benzotriazole], for which the EC50 is more than 316 nM.
For `CCC1(CC)CC(=O)c2cc(-c3nc(-c4sccc4C)no3)ccc2O1` [Compound 265, 2,2-diethyl-6-(3-(3-methylthiophen-2-yl)-1,2,4-oxadiazol-5-yl)chroman-4-one], the EC50 was less than 316 nM.
Turning to `CCC1(CC)CC(=O)c2cc(-c3nc(-c4ccc(C)cc4)no3)ccc2O1` [Compound 269, 2,2-diethyl-6-[3-(p-tolyl)-1,2,4-oxadiazol-5-yl]chroman-4-one], the EC50 was more than 316 nM.
The result for `CC(C)CCn1nnc2cc(-c3nc(-c4ccccc4)no3)ccc21` [Compound 271, 1-(3-methylbutyl)-5-(3-phenyl-1,2,4-oxadiazol-5-yl)-1H-1,2,3-benzotriazole] reads more than 316 nM.
On to `COc1cncc(-c2nc(-c3ccc4c(c3)nnn4C(C)C)no2)c1` [Compound 272, 3-(1-isopropyl-1H-benzo[d][1,2,3]triazol-5-yl)-5-(5-methoxy-pyridin-3-yl)-1,2,4-oxadiazole], for which the EC50 was more than 316 nM.
In the case of `CC1(C)CC(=O)c2cc(-c3nc(-c4cccnc4)no3)ccc2O1` [Compound 274, 2,2-dimethyl-6-[3-(pyridin-3-yl)-1,2,4-oxadiazol-5-yl]-3,4-dihydro-2H-1-benzopyran-4-one], the EC50 was more than 316 nM.
Consider `COc1ccc(-c2nc(-c3ccc4c(c3)nnn4C3CCCC3)no2)cc1OC` [Compound 275, 3-(1-cyclopentyl-1H-benzo[d][1,2,3]triazol-5-yl)-5-(3,4-dimethoxyphenyl)-1,2,4-oxadiazole], for which the EC50 is more than 316 nM.
For the compound `COc1ccccc1-c1coc(-c2ccc3c(c2)nnn3C(C)C)n1` [Compound 277, 5-[4-(2-methoxy-phenyl)-1,3-oxazol-2-yl]-1-(propan-2-yl)-1H-1,2,3-benzotriazole], the EC50 was less than 316 nM.
In the case of `CC(C)n1nnc2cc(-c3noc(-c4ccccc4C#N)n3)ccc21` [Compound 279, 2-(3-(1-isopropyl-1H-benzo[d][1,2,3]triazol-5-yl)-1,2,4-oxadiazol-5-yl)benzonitrile], the EC50 was more than 316 nM.
Take `O=C1CC2(CCCCC2)Oc2ccc(-c3nc(-c4ccncc4)no3)cc21` [Compound 280, 6-[3-(pyridin-4-yl)-1,2,4-oxadiazol-5-yl]-3,4-dihydrospiro[1-benzopyran-2,1′-cyclohexane]-4-one]: the EC50 is more than 316 nM.
As to `COc1cc(-c2noc(-c3ccc4c(c3)nnn4C3CCCC3)n2)ccn1` [Compound 281, 1-cyclopentyl-5-[3-(2-methoxypyridin-4-yl)-1,2,4-oxadiazol-5-yl]-1H-1,2,3-benzotriazole], the EC50 is more than 316 nM.
As for `CC(C)n1nnc2cc(-c3nc(-c4ccccc4Br)no3)ccc21` [Compound 282, 5-[3-(2-bromophenyl)-1,2,4-oxadiazol-5-yl]-1-(propan-2-yl)-1H-1,2,3-benzotriazole], the EC50 is less than 316 nM.
As for `Brc1ccccc1-c1nc(-c2ccc3c(c2)nnn3Cc2cccnc2)no1` [Compound 283, 5-(2-bromophenyl)-3-(1-(pyridin-3-ylmethyl)-1H-benzo[d][1,2,3]triazol-5-yl)-1,2,4-oxadiazole], the figure is more than 316 nM.
Consider `COc1ccc(-c2noc(-c3ccc4c(c3)nnn4C3CCCCC3)n2)cc1C(F)(F)F` [Compound 284, 1-cyclohexyl-5-{3-[4-methoxy-3-(trifluoro-methyl)phenyl]-1,2,4-oxadiazol-5-yl}-1H-1,2,3-benzotriazole], for which the EC50 was more than 316 nM.
Regarding `c1ccc(Oc2ccc(-c3noc(-c4ccc5c(c4)nnn5C4CC4)n3)cc2)cc1` [Compound 285, 1-cyclopropyl-5-[3-(4-phenoxyphenyl)-1,2,4-oxadiazol-5-yl]-1H-1,2,3-benzotriazole], the EC50 was more than 316 nM.
For `COc1ccccc1-c1noc(-c2ccc3c(c2)nnn3C(C)C)n1` [Compound 286, 5-(1-isopropyl-1H-benzo[d][1,2,3]triazol-5-yl)-3-(2-methoxy-phenyl)-1,2,4-oxadiazole], the EC50 was less than 316 nM.
With `Cc1ccccc1-c1noc(-c2ccc3c(c2)nnn3CC2CC2)n1` [Compound 288, 1-(cyclopropylmethyl)-5-[3-(2-methylphenyl)-1,2,4-oxadiazol-5-yl]-1H-1,2,3-benzotriazole], the EC50 was more than 316 nM.
As to `CC(C)n1nnc2cc(-c3noc(-c4ccc(C5CCCCC5)cc4)n3)ccc21` [Compound 290, 5-(4-cyclohexylphenyl)-3-(1-isopropyl-1H-benzo[d][1,2,3]triazol-5-yl)-1,2,4-oxadiazole], the EC50 was more than 316 nM.
With `CC1(C)CC(=O)c2cc(-c3nc(-c4ccncc4)no3)ccc2O1` [Compound 291, 2,2-dimethyl-6-[3-(pyridin-4-yl)-1,2,4-oxadiazol-5-yl]-3,4-dihydro-2H-1-benzopy ran-4-one], the EC50 was more than 316 nM.
Regarding `c1ccc(-c2noc(-c3ccc4c(c3)nnn4C3CCCCC3)n2)cc1` [Compound 292, 1-cyclohexyl-5-(3-phenyl-1,2,4-oxadiazol-5-yl)-1H-1,2,3-benzotriazole], the EC50 was more than 316 nM.
As for `CC(C)n1nnc2cc(-c3nc(-c4ccccc4)co3)ccc21` [Compound 294, 5-(4-phenyl-1,3-oxazol-2-yl)-1-(propan-2-yl)-1H-1,2,3-benzotriazole], the figure is more than 316 nM.
As to `c1cc(-c2noc(-c3ccc4c(c3)nnn4C3CC3)n2)ccn1` [Compound 295, 1-cyclopropyl-5-[3-(pyridin-4-yl)-1,2,4-oxadiazol-5-yl]-1H-1,2,3-benzotriazole], the EC50 is more than 316 nM.
The result for `CC(C)n1nnc2cc(-c3nc(-c4ccc(OCc5ccccc5)c(C(F)(F)F)c4)no3)ccc21` [Compound 296, 5-{3-[4-(benzyloxy)-3-(trifluoromethyl)phenyl]-1,2,4-oxadiazol-5-yl}-1-(propan-2-yl)-1H-1,2,3-benzotriazole] reads more than 316 nM.
